Common to all, as to type: functional, cell-based
One assay deals with HGC-27. The assay is described as follows: Cytotoxicity against human HGC27 cells by MTT assay.
For the next assay, the system named is HeLa. As to the kind of experiment: Cytotoxicity against human HeLa cells by MTT assay.
The next assay relates to A549. As to the kind of experiment: Cytotoxicity against human A549 cells by MTT assay. (In general: Tetrazolium dyes change colour on reduction, which living cells bring about.)

The source made the active and inactive calls. No cut-off for these calls is given here.

On to `COC1=C2OC(=O)c3c(O)cc(C(C)C)c(c32)C(=O)C1(C)O` (stereo not drawn) [BOMBAMALONE A], for which, in the assay with HGC-27, the IC50 is > 10 µM. With `CC1=C2OC(C)(C)c3cc4c(c(c32)C(=O)C1=O)C(C)(O)C=CO4` (stereo not drawn) [BOMBAMALONE B], the outcome in the assay with HeLa and in the assay with A549 was inactive. Besides, the IC50 in the assay with HGC-27 is > 10 µM. As to `CC1=C2OC(C)(C)c3cc(O[C@@H]4O[C@H](CO)[C@@H](O)[C@H](O)[C@H]4O)c(C(=O)O)c(c32)C(=O)C1=O` [BOMBAMALOSIDE], the IC50 in the assay on HGC-27 is > 10 µM.

Consider `COc1c(O)c(C)cc2c(C(C)C)cc(O)c(C=O)c12`, for which the IC50 with HGC-27 was > 10 µM. Same read-out and setting: for `Cc1cc2c(cc1O)[C@@](C)(O)C(=O)C=C2C(C)C` [LACINILENE C] the value was > 10 µM; for `COC1=C(C)C(=O)c2c(C(C)C)cc(O)c(C(=O)O)c2C1=O`, > 10 µM.

In the case of `COc1c(C)cc2c(C(C)C)cc(O)c3c2c1OC3=O`, in the assay with HGC-27, the IC50 is > 10 µM. On the same count and under the same terms, the same measure for `COc1c(O)c(C)cc2c1C(=O)C(=O)C=C2C(C)C` [BOMBAMALONE C]: > 10 µM. Regarding `CC(=O)O[C@H]1C(=O)[C@@]2(C)[C@H]([C@H](OC(=O)c3ccccc3)[C@]3(O)C[C@H](OC(=O)[C@H](O)[C@@H](NC(=O)c4ccccc4)c4ccccc4)C(C)=C1C3(C)C)[C@]1(OC(C)=O)CO[C@@H]1C[C@@H]2O` [PACLITAXEL], the IC50 turned out to be 0.0056 µM with HeLa, 0.778 µM in the assay with HGC-27 and 0.0126 µM in the assay with A549.

Usually IC50 stands for the concentration that inhibits the measured activity by half. Higher therefore signals weaker potency in that assay.

Values taken from ChEMBL document CHEMBL1141275, “Sesquiterpenoids from Bombax malabaricum” (J Nat Prod, 2007).
